These results are taken from patent US9238684B2, “SPANX-B polypeptides and their use” (The United States of America, as represented by the …, priority 2009, dated 2016).

Test [1] concerns primary human melanoma cells. The experiment in a line: CTL 51Cr release assay on primary human melanoma cells. It counts as cell-based. The method, then: (§1) CTL assay and HLA blocking experiments: Tumor cell lines (target cells, 2×10^6) were incubated in 200 μL of fetal bovine serum (FBS) with 200 μCi of Na2^51CrO4 (PerkinElmer, Billerica, Mass.) for 2 hours at 37° C. Cells were washed with RPMI three times and resuspended in cRPMI with 10% FBS at 1×10^5 cells/mL. CTL assay was performed in triplicate in 96-well round bottom plates with 1×10^4/well ^51Cr-labeled target cells. The target cells were co-cultured at indicated ratios with effector cells (peptide-specific CD8^+ T cells) for 6 hours. The specific ^51Cr-release is calculated using formula: ((test sample release−spontaneous release)/(maximum release−spontaneous release))×100). Maximum release is for the target cells alone lysed with 2% Triton X-100.

Test [2] concerns UACC1273 melanoma cells. The experiment in a line: CTL 6-hour 51Cr release assay on UACC1273. The format is cell-based, human. As to conditions: SPANX-B-expressing, HLA-A2-positive target; FIGS. 6A-C. How it is done:
as §1

The test system of test [3] is murine anti-SPANX-B antibody. The experiment in a line: ELISA on peptide-coated plates with murine anti-SPANX-B antibody. The format is binding. As to conditions: Ab from mice DNA immunized with SPANX-B-expressing plasmid; FIG. 1B. The method, then: FIGS. 1A-1F are digital images, a graph and a schematic diagram illustrating the specificity of antibody and expression of SPANX-B in human immortalized tumor cell lines. FIG. 1A is a digital image showing ANEA-I0117 antibody recognized SPANX-B expressed in mouse erythroleukemia RL5 cells. Western blotting results are shown with ANEA-I0117 anti-SPANX-B antibody on lysates of RL5 cells (2 μl, 5 μl and 10 μl, respectively) transiently transduced with plasmid expressing SPANX-B (SPANX-B). Control lysates were made from untransduced parental RL5 cells (Control). FIG. 1B is a graph showing murine anti-SPANX-B antibody, which was generated from mice DNA immunized with plasmid expressing SPANX-B, recognized unique SPANX-B-specific insert of SPANX-B (encoded in Pep-G1 and Pep-2 peptides), ELISA assay on plates coated with various peptides that are depicted in FIG. 1C. […] FIG. 1D is a digital image showing the expression of SPANX-B protein evaluated by Western blotting with ANEA-I0117 Ab (1:5000) in lysates of cell lines, such as HEK293 (HEK), Jurkat, CRL 7002, UACC1273, 938 Mel, CCRF-CEM (CEM), and normal human donor PBMC (upper panel). The blot was stripped and hybridized with anti-actin antibody (lower panel). FIGS. 1E and 1F are digital images obtained from an immunohistochemistry and immunofluorescent assay, respectively, of melanoma (UACC1273) and ovarian carcinoma (2008 and OVCAR3) cell lines. The cells were stained with ANEA-I0117 Ab (right and bottom panels in FIG. 1E and FIG. 1F, respectively); and control IgG (left and upper panels in FIG. 1E and FIG. 1F, respectively).
SPANX-B can be often found in the list of highly expressed genes in microarray study of human tumors, including hematological malignancies and breast cancer (see, for example, Minn et al., Nature 436(7050):518-24, 2005). To confirm this, expression was tested using two antibodies, a rabbit 3ANEA Ab and mouse SPANX-B Ab. […] The second SPANX-B Ab was produced from mice DNA immunized with SPANX-B-expressing plasmid. […] In contrast, it reacted with a second peptide Pep-2 that only represented unique for SPANX-B insert of Pep-G1 (FIGS. 1B and C).

The test system of test [4] is HEK293 cells. Briefly: CTL 51Cr release assay on HEK293 cells pulsed with Pep-2. The format is cell-based, human. As to conditions: FIGS. 6A-C. How it is done:
as §1

For test [5], the system named is OVCAR3 cells. The experiment in a line: CTL 51Cr release assay on OVCAR3. The format is cell-based, human. As to conditions: HLA-A2-positive, SPANX-B-negative target; FIG. 6D. The method, then: as §1
Test [6] concerns SPANX-B. Briefly: DNA immunization of mice, serum ELISA on peptide-coated plates. As to conditions: plates coated with peptide 5 μg/ml; FIG. 7. It counts as in vivo. The method, then:
Mice were intradermally immunized twice with 25 μg plasmid DNA constructs including MIP-3α-SPANX-B. Sera were tested for SPANX-B antibodies by ELISA assay in 96-well plates coated with the indicated peptides (5 μg/ml). […] The other was near the N-terminus, encoded by Pep-G1 (SEQ ID NO: 14) and Pep-2 (SEQ ID NO: 2) and Pep-3 (SEQ ID NO: 3).

The subject of test [7] is SPANX-B-specific CD8^+ T cell lines. The experiment in a line: IFNγ secretion (ELISA) by CD8+ T cell lines stimulated with antigen-pulsed autologous DCs. It counts as cell-based, human. For orientation: ELISA stands for enzyme-linked immunosorbent assay.

“Also recorded” adds a separate entry of the source.

Take EANEANKTM (Synthetic peptide Pep-2): the “lysis of HLA-A2-expressing primary melanoma tumors by CD8+ lines generated to the antigen” value in test [1] (Tc526, Tc624 and Tc2492) is “recognized and lysed”. For the same sequence, in test [1] (Tc2547 and Tc938, FIG. 6E), the “lysis of HLA-A2-negative primary melanoma tumors by CD8+ lines generated to the antigen” value was “not affected”. The “lysis of UACC1273 melanoma cells by CD8+ T cell lines generated to the antigen” value in test [2] was “killed UACC1273 melanoma cells”. In addition, the “recognition of peptide by mouse SPANX-B Ab (ELISA)” value in test [3] is listed as “but not other region-specific peptides; also recorded: reacted with”. The “lysis of HLA-A2-expressing HEK293 cells pulsed with Pep-2 by CD8+ T cell lines generated to the antigen” value in test [4] (HEK-A2, pulsed with 1 μg/ml Pep-2) is reported as “lysed HLA-A2-expressing HEK293 cells that were pulsed with Pep-2”. In addition, the “lysis of HLA-A2-negative parental HEK293 cells by CD8+ T cell lines generated to the antigen” value in test [4] (HEK) is on record as “did not kill”. Besides, the “lysis of OVCAR3 cells by CD8+ T cells, with or without Pep-2 pulsing” value in test [5] is on record as “could not lyse HLA-A2-positive OVCAR3 cells that did not express SPANX-B, unless pulsed with Pep-2”. In test [6], the “B cell epitope recognized by sera of immunized mice (ELISA)” value was “Immunodominant B cell epitopes”. Further, the “recognition of SPANX-B protein-pretreated DCs by CD8+ T cells generated with peptide-pulsed DCs” value in test [7] was “also recognized SPANX-B protein-pretreated DCs”. Moreover, the “IFNγ secretion by SPANX-B-specific CD8+ T cells on stimulation with pulsed DCs” value in test [7] (irradiated autologous DCs, lines generated with SPANX-B protein, FIG. 5A) is given as “secreted IFNγ”.
